The conditions of data set [1]: diprotonated form; acidic pH; cited from earlier work.
Data set [2] in a line: U-tube model membrane transport, 5-nitroisophthalate. The conditions noted are these: carrier 0.1 mM in dichloromethane; source 10 mM each of three acids, pH 7.2; receiving pH 7; 24-26 °C; error ±10%. As for the experimental part: (§1) To illustrate the binding of dicarboxylate anions by sapphyrin dimers, transport studies were carried out utilizing a standard U-tube model membrane system. Transport experiments were performed using a glass U-tube at 24°-26° C. Conditions: Source phase: 1 mL of a 1:1:1 ratio of 4-nitrophthalic acid, 5-nitroisophthalic acid and nitroterephthalic acid (10 mM of each) at pH 7.2 (adjusted by the addition of NaOH). Membrane (6 mL); carrier (1a or 23): 0.1 mM in dichloromethane. Receiving phase: 1 mL of H2 O, pH 7.0. The release of the dicarboxylate dianions into the receiving phase was monitored as a function of time via HPLC product analysis achieved using adenosine or uridine as the internal standards. In all cases, control experiments were performed in the absence of carrier. Error is within ±10%.

A short description of data set [3]: Carboxylate binding, summary statements. From the text: (§2) Quantitative assessments of dicarboxylate binding efficacy in methanol were made using standard spectroscopic techniques. In general, ^1 H NMR methods were employed, with the observed changes in the ^1 H NMR chemical shifts of the aromatic protons of the carboxyl-containing substrate (kept constant in the mM concentration range) being monitored as a function of increased receptor concentration. In some instances, well-resolved shifts could not be observed in the appropriate ^1 H NMR spectra. Here, either visible spectroscopic titration procedures were used or deuterated substrates were employed such that the binding process could be followed by ^2 H NMR.
(§3) More specifically, binding studies were effected by means of ^1 H NMR (General Electric QE-300), ^2 H NMR (Bruker AM-500) and Vis (Beckman DU 640) titrations and were carried out at 293 K. using methanol as the solvent. Methanol-d4 was used for the ^1 HNMR titrations and non-deuterated methanol was used for the ^2 H NMR analyses. For both sets of NMR titrations, the substrate concentration was held constant and the receptor concentration varied. The change in the chemical shifts of the aromatic hydrogen/deuterium atoms of the substrates were then followed and used as a way of monitoring, in a relative way, the concentration of the bound and unbound species. […]

A short description of data set [4]: Binding constant titration in methanol. Particulars: for Ka: methanol, 293 K, 23 as bis HCl salt.
Source text: as §2
(§4) More specifically, binding studies were effected by means of ^1 H NMR (General Electric QE-300), ^2 H NMR (Bruker AM-500) and Vis (Beckman DU 640) titrations and were carried out at 293 K. using methanol as the solvent. Methanol-d4 was used for the ^1 HNMR titrations and non-deuterated methanol was used for the ^2 H NMR analyses. For both sets of NMR titrations, the substrate concentration was held constant and the receptor concentration varied. The change in the chemical shifts of the aromatic hydrogen/deuterium atoms of the substrates were then followed and used as a way of monitoring, in a relative way, the concentration of the bound and unbound species. For the Vis titrations, the receptor concentration was held constant and the substrate concentration varied. There, the change in absorption of the Soret-like band of receptor 23 was followed. Receptor 23 was used in the form of its bis-HCl salt, 23-2HCl. This salt was prepared by washing a dichloromethane solution of 23 (in its free-base form) three times with independent portions of an aqueous pH 6 solution of HCl, followed by 1) drying over Na2 SO4, 2) evaporative removal of solvent and 3) drying in vacuo. Substrates were used as their trimethylammonium salts. They were prepared by dissolving the relevant dicarboxylic acid in methanol and then bubbling with trimethylamine gas for 10 min. […]

Data set [5] can be described thus: U-tube model membrane transport, nitroterephthalate. As for the experimental part: as §1
Data set [6] can be described thus: Binding constant titration in methanol. Particulars: for Kd: methanol, 293 K, 23 as bis HCl salt, read-out: K1, K2 (converted).
Source text: as §2, §4

Data set [7] in a line: U-tube model membrane transport of dicarboxylates, summary. The conditions noted are these: neutral pH. As to the method:
as §1

Data set [8] is described as follows: U-tube model membrane transport, 4-nitrophthalate. The conditions noted are these: carrier 0.1 mM in dichloromethane; source 10 mM each of three acids, pH 7.2; receiving pH 7; 24-26 °C; error ±10%. As for the experimental part: as §1
A short description of data set [9]: Binding constant titration in methanol.
Source text: as §2, §3

Data set [10] is described as follows: Binding constant titration in methanol. The conditions noted are these: for Kd: binding constant, 1H NMR, methanol, 293 K, 23 as bis HCl salt.
Source text: as §2, §4

A short description of data set [11]: Binding constant titration in methanol.
Source text: as §2, §3
The source holds these as a separate data set.

The nature of data set [12]: Binding constant titration in methanol.
Source text: as §2, §3
The source holds these as a separate data set.

Data set [13] in a line: Binding constant titration in methanol.
Source text: as §2, §3
This is another data set of the same source.

Data set [14] can be described thus: Binding constant titration in methanol.
Source text: as §2, §3
This is another data set of the same source.

The nature of data set [15]: Protonation state of sapphyrin. The data set is classed as physicochemical.
A further data set relates to DNA. In words: DNA binding of unmodified sapphyrin.
Where [16] appears, read: relative to the worst bound substrate, oxalate.
The mark [17] stands for this setting: Vis spectroscopy, methanol, 293 K, 23 as bis HCl salt.

SMILES strings stand for the structures. “Also recorded” adds a separate entry of the source. Like-named read-outs stand apart in the source and are kept apart here.

Turning to `CCC1=C(C)c2cc3[nH]c(c(C)c3CC)c3[nH]c(cc4nc(cc5[nH]c(cc1n2)c(CC)c5CC)C(CC)=C4C)c(CC)c3C` [3,8,12,13,17,22-hexaethyl-2,7,18,23-tetramethylsapphyrin], in data set [1], the “carrier for through-membrane transport” value is reported as “efficient carrier”.
Take `CCC1=C(C)c2cc3[nH]c(c(C)c3CC)c3[nH]c(cc4nc(cc5[nH]c(cc1n2)c(C)c5CCC(=O)NCCCNC(=O)CCc1c(C)c2cc5nc(cc6[nH]c(c(C)c6CC)c6[nH]c(cc7nc(cc1[nH]2)C(CC)=C7C)c(CC)c6C)C(C)=C5CC)C(CC)=C4C)c(CC)c3C` [Compound 23, 1,3-bis[12-aminocarbonylethyl-(3,8,17,22-tetraethyl-2,7,13,18,23-pentamethylsapphyrin)]propane]: the “Initial rate of transport kT, meta” value in data set [2] is 2.926 10^-10 mol/cm^2 · h. Also, the “Affinity and selectivity for carboxylates (in words)” value in data set [3] was “little affinity for monocarboxylate-derived substrates; also recorded: very good affinities for certain dicarboxylates; also recorded: preference for linear over bent substrates and aromatic over aliphatic substrates”. Besides, the Ka is 2 500 M^-1 in [4] (Vis spectroscopy); 2 400 M^-1 in data set [4] (first value, footnote printed c); 5 300 M^-1 in [9] (setting [17]); 260 M⁻¹ in [11] (setting [17]); 450 M⁻¹ in [12] (setting [17]); 4 600 M^-1 in data set [13] (2H NMR, methanol, 293 K, 23 as bis HCl salt). In addition, in data set [14] (setting [17]), the Ka is 9 100 M^-1. Besides, the Selectivity is reported as 9.4 in [4] (setting [16]); 5.6 in [6] (setting [16]); 20.4 in data set [9] (setting [16]); 1.2 in data set [10] (setting [16]); 1 in data set [11] (setting [16]); 1.7 in data set [12] (setting [16]). In addition, the Selectivity in data set [13] (setting [16]) was 17.7; in data set [14] (setting [16]), 35.0. Besides, in [5] (carrier 0.1 mM in dichloromethane, source 10 mM each of three acids, pH 7.2, receiving pH 7, 24-26 °C, error ±10%), the “Initial rate of transport kT, para” value was 6.803 10^-10 mol/cm^2 · h. Also, the “Transport rate of nitroterephthalate relative to 4-nitrophthalate” value in data set [5] (direct competition experiments) was “three times faster”. Also, the Kd in data set [6] (1H NMR) is 725 µM; in [6] (2H NMR) it was 654 µM; in data set [10] (read-out: K1 (converted)), 3230 µM; in [10] (read-out: K2 (converted)) it was 3570 µM. In data set [7], the “Carrier efficacy for dicarboxylates” value is “acts as an efficient carrier for a range of dicarboxylates”. In addition, the “Initial rate of transport kT, ortho” value in data set [8] is on record as 2.190 10^-10 mol/cm^2 · h.
`CCc1c(CC)c2cc3nc(cc4[nH]c(c(C)c4CC)c4[nH]c(cc5nc(cc1[nH]2)C(CCC(=O)N(CCO)CCO)=C5C)c(CC)c4C)C(C)=C3CCC(=O)N(CCO)CCO` [sapphyrin]: the “pH range in which sapphyrin remains monoprotonated” value in [15] is listed as 3.5-10 pH. In addition, in the data set with DNA, the “mode of DNA binding” value is recorded as “not intercalation or groove binding”. The Kd at DNA (unmodified sapphyrin, read-out: binding constant for DNA) was approximately 1 µM.

These data come from patent US5587478A, “Sapphyrin multimers” (Board of Regents, The University of Texas System, priority 1995, dated 1996).
